Data published in ChEMBL document CHEMBL5137030 (Eur J Med Chem, 2022).
Activity calls are given as the source filed them. The rule behind the calls is not given here.

Tests used:
[1] = tested on: Human alphaherpesvirus 2; assay: Antiviral activity against HSV-2 333vhsB infected in African green monkey Vero cells assessed as inhibition of viral replication by measuring reduction in virus-induced cytopathic effect at 50 uM incubated for 20 hrs by colorimetric analysis; assay type: functional, organism-based
[2] = tested on: Human alphaherpesvirus 2; assay: (§1) Antiviral activity against HSV-2 infected in African green monkey Vero cells assessed as inhibition of viral replication by measuring log suppression of virus-induced cytopathic effect at 5 uM incubated for 1 hr followed by washing with PBS and subsequent treatment with compound for 24 hrs by plaque assay; assay type: functional; details: time 25 hrs
[3] = tested on: Human alphaherpesvirus 2; assay: as §1, with “1” for “5”; assay type: functional; details: time 25 hrs
[4] = tested on: Human alphaherpesvirus 1; assay: as §1, with “HSV-1” for “HSV-2”; assay type: functional; details: time 25 hrs
[5] = tested on: Human alphaherpesvirus 1; assay: as §1, with “HSV-1” for “HSV-2”, “1” for “5”; assay type: functional; details: time 25 hrs
[6] = tested on: Human alphaherpesvirus 2; assay: Antiviral activity against HSV-2 infected in African green monkey Vero cells assessed as inhibition of viral replication incubated for 1 hr followed by washing with PBS and subsequent treatment with compound for 24 hrs by plaque reduction assay; assay type: functional, organism-based; details: Human alphaherpesvirus 2, Vero
[7] = tested on: Vero; assay: Cytotoxicity against African green monkey Vero cells assessed as reduction in cell viability incubated for 24 hrs by MTS assay; details: chlorocebus sabaeus
[8] = Cytotoxicity against human HepDES19 cells assessed as reduction in cell viability incubated for 72 hrs by MTS assay; assay type: toxicity, cell-based; details: hepdes19, 72 h
[9] = tested on: Human alphaherpesvirus 2; assay: Antiviral activity against wild-type HSV-2 186 infected in African green monkey Vero cells assessed as inhibition of viral replication incubated for 1 hr followed by washing with PBS and subsequent treatment with compound for 24 hrs by plaque reduction assay; assay type: functional, organism-based; details: Human alphaherpesvirus 2, 186, Vero
[10] = tested on: Human alphaherpesvirus 2; assay: Antiviral activity against thymidine kinase-deficient ACV-resistant HSV-2 186 TKdeltakpn infected in African green monkey Vero cells assessed as inhibition of viral replication incubated for 1 hr followed by washing with PBS and subsequent treatment with compound for 24 hrs by plaque reduction assay; assay type: functional, organism-based; details: Human alphaherpesvirus 2, 186 TKdeltakpn
[11] = Half life in mouse liver microsomes at 2 uM in presence of NADPH by LC/MS/MS analysis; assay type: ADME, Microsome
[12] = Half life in human liver microsomes at 2 uM in presence of NADPH by LC/MS/MS analysis; assay type: ADME, Microsome
[13] = Apparent permeability of the compound across apical to basolateral side in human Caco-2 cells at 10 uM incubated for 2 hrs; assay type: ADME, cell-based; details: caco-2, 2 h
[14] = Half-life in BALB/c mouse at 3 mg/kg, po and 1 mg/kg, iv by LC/MS/MS analysis; assay type: ADME, organism-based; details: in vivo
[15] = Oral bioavailability in BALB/c mouse at 3 mg/kg by LC/MS/MS analysis; assay type: ADME, organism-based; details: in vivo
[16] = tested on: Human alphaherpesvirus 1; assay: Antiviral activity against HSV-1 infected in African green monkey Vero cells assessed as inhibition of viral replication incubated for 1 hr followed by washing with PBS and subsequent treatment with compound for 24 hrs by plaque reduction assay; assay type: functional, organism-based; details: Human alphaherpesvirus 1, Vero

| SMILES | Activity [1] | log(activity) [2] | log(activity) [3] | log(activity) [4] | log(activity) [5] | EC50 [6] [nM] | CC50 [7] [nM] | CC50 [8] [nM] | EC50 [9] [nM] | EC50 [10] [nM] | t1/2 [11] [min] | t1/2 [12] [min] | Papp [13] | t1/2 [14] [min] | bioavailability [15] [%] | EC50 [16] [nM] |
| --- | --- | --- | --- | --- | --- | --- | --- | --- | --- | --- | --- | --- | --- | --- | --- | --- |
| Cc1cc(Cc2cccc3ccccc23)n(O)c(=O)c1 | Active | 4.33 | 3.12 | 4.81 | 2.99 | 220 | 93100 | 25000 | < 300 | < 300 | < 5 | < 5 | 6.46 10^-6 cm/s | < 60 | 10 |  |
| Cc1cc(Cc2ccc(-c3ccccc3)cc2)n(O)c(=O)c1 | Active | 4.6 | 3.09 | 4.74 | 4.37 | 140 |  | 12000 | < 300 | < 300 | < 5 | < 5 | 1.35 10^-6 cm/s | < 60 | 10 | 210 |
| Cc1cc(C2CCCCC2)n(O)c(=O)c1 [CICLOPIROX] |  | 5.5 | 2.6 | 4.62 | 1.66 | 500 | > 100000 | 13000 | < 300 | < 300 |  |  |  |  |  | 270 |
